Results on 35 molecules are retold here after the Biogen ADME set (Fang et al. 2023).

In brackets after ≈: the same amount, converted by molar mass.

The conditions of this data set: for aqueous solubility: pH 6.8.

For `CCN1CCC(N(C)c2ncnc3c2cnn3C)CC1`, the MDR1-MDCK efflux ratio was found to be 1.01; the intrinsic clearance, human liver microsomes amounted to 152 mL/min/kg; the intrinsic clearance, rat liver microsomes is 37 mL/min/kg; the aqueous solubility (commonly the concentration that dissolves in the medium under given conditions) was 41.2 µg/mL (≈ 150 µM).
In turn, `CC(C)N1CC[C@H](c2nnc(-c3cncn3C)o2)C1` returned an intrinsic clearance, human liver microsomes of at most 4.74 mL/min/kg; an intrinsic clearance, rat liver microsomes of 79.2 mL/min/kg; an aqueous solubility of 39.3 µg/mL (≈ 150 µM).
As to `Nc1ccc(Cl)c(NC2=NN(c3c(Cl)cc(Cl)cc3Cl)C(=O)C2)c1`, the intrinsic clearance, human liver microsomes turned out to be 92.5 mL/min/kg; the intrinsic clearance, rat liver microsomes amounted to 702 mL/min/kg; the aqueous solubility came to 14.1 µg/mL (≈ 34.8 µM).
As for `Cc1nonc1C(=O)Nc1cccnc1N(C)C`, the intrinsic clearance, human liver microsomes was 16.6 mL/min/kg and the intrinsic clearance, rat liver microsomes is 173 mL/min/kg.
With `N#CCN(CN1C(=O)CC2(CCCC2)C1=O)C1CC1`, the aqueous solubility was 38.5 µg/mL (≈ 147 µM).
As to `Cc1ccc(C2(O)CCN(Cc3cn(C)c4ccc(F)cc34)CC2)cc1`, the MDR1-MDCK efflux ratio is 0.869; the intrinsic clearance, human liver microsomes is 65.2 mL/min/kg; the intrinsic clearance, rat liver microsomes was found to be 1790 mL/min/kg; the aqueous solubility is 49.7 µg/mL (≈ 141 µM).
For `Cc1ccc(NC(=O)OC(C)(C)C)c2c1N(C(=O)[C@H]1CCCO1)CCC2`, the MDR1-MDCK efflux ratio is 2.91; the intrinsic clearance, human liver microsomes came out at 33.6 mL/min/kg; the intrinsic clearance, rat liver microsomes was 377 mL/min/kg; the aqueous solubility came to 32.2 µg/mL (≈ 89.3 µM).
The like results for `CCN(CC)Cc1cccc(/C=C/c2nc3ccc(F)cc3c(=O)n2-c2ccccc2Cl)n1` were, in that order, 8.43, 69.4 mL/min/kg, 516 mL/min/kg and 67.5 µg/mL (≈ 146 µM).
The like results for `Cc1nc(NC2(c3cccc(Cl)c3)CC2)c2c(C)noc2n1` were, in that order, 0.871, 9.21 mL/min/kg, 254 mL/min/kg and 41.4 µg/mL (≈ 131 µM).
The corresponding values for `O=S(=O)(Cc1csc(C2CCCC2)n1)C1CCCC1` are 0.538, 92.7 mL/min/kg, 2190 mL/min/kg and 34.9 µg/mL (≈ 116 µM).
On to `Cn1ccc(CN2C(=O)c3ccccc3C2=O)cc1=O`, for which the MDR1-MDCK efflux ratio was 1.9; the intrinsic clearance, human liver microsomes is at most 4.74 mL/min/kg; the intrinsic clearance, rat liver microsomes amounted to 12.1 mL/min/kg; the aqueous solubility came to 50 µg/mL (≈ 187 µM).
For the molecule `Cc1cc(Nc2ccc3c(c2)oc(=O)n3C)nc(C2CC2)n1`, the MDR1-MDCK efflux ratio was found to be 0.717; the intrinsic clearance, human liver microsomes is 23.9 mL/min/kg; the intrinsic clearance, rat liver microsomes turned out to be 159 mL/min/kg; the aqueous solubility is 5.34 µg/mL (≈ 18 µM).
For `Cc1nc(-c2cccnc2)sc1C(=O)Nc1ccccc1-c1cn2c(CN3CCOCC3)csc2n1`, the MDR1-MDCK efflux ratio amounted to 3.28 and the aqueous solubility was 0.65 µg/mL (≈ 1.26 µM).
Turning to `O=c1n(CCn2ccnc2)nnn1-c1cccs1`, the MDR1-MDCK efflux ratio was 0.738; the intrinsic clearance, human liver microsomes is at most 4.74 mL/min/kg; the intrinsic clearance, rat liver microsomes amounted to 55.6 mL/min/kg.
Turning to `COc1ccc(N)cc1N1CCOC1=O`, the intrinsic clearance, human liver microsomes was at most 4.74 mL/min/kg; the intrinsic clearance, rat liver microsomes was at most 10.7 mL/min/kg; the aqueous solubility worked out at 32.2 µg/mL (≈ 155 µM).
In turn, `Cc1cc(C)cc(C(=O)NCCCNc2ncccn2)c1` had an aqueous solubility of 52.5 µg/mL (≈ 185 µM).
Regarding `CSC1(CNc2cc(C)nc(C)n2)CCOCC1`, the MDR1-MDCK efflux ratio came to 1.42; the intrinsic clearance, human liver microsomes was at most 4.74 mL/min/kg; the intrinsic clearance, rat liver microsomes is 76.1 mL/min/kg.
Regarding `COc1ccc(CNCc2cccc3ccccc23)cc1`, the MDR1-MDCK efflux ratio was 0.45; the intrinsic clearance, human liver microsomes amounted to 194 mL/min/kg; the intrinsic clearance, rat liver microsomes is 620 mL/min/kg; the aqueous solubility stood at 47.2 µg/mL (≈ 170 µM).
Consider `Cc1ccc2c(c1)c1nc3ccccc3nc1n2CC(N)=O`, for which the MDR1-MDCK efflux ratio is 0.833 and the aqueous solubility stood at 0.16 µg/mL (≈ 0.551 µM).
Take `O=C(NCc1nc(-c2cnccn2)n[nH]1)C1Cc2ccccc2C1`: the MDR1-MDCK efflux ratio is 8.75; the intrinsic clearance, human liver microsomes was at most 4.74 mL/min/kg; the intrinsic clearance, rat liver microsomes came out at 19 mL/min/kg.
Consider `C[C@]1(O)CN(C(=O)Cn2cnc3ccccc32)CC[C@@H]1Oc1ccccc1`, for which the MDR1-MDCK efflux ratio amounted to 47.2; the intrinsic clearance, human liver microsomes was determined as 5.54 mL/min/kg; the intrinsic clearance, rat liver microsomes worked out at 181 mL/min/kg.
Consider `CC(C)c1cc(C(=O)Nc2ncccc2Cl)no1`, for which the intrinsic clearance, human liver microsomes worked out at 88.3 mL/min/kg and the intrinsic clearance, rat liver microsomes was determined as 65.1 mL/min/kg.
For `O=c1[nH]c2ccccc2n1C1CCN(Cc2nnc(-c3cc4c(s3)CCCC4)o2)CC1`, the intrinsic clearance, human liver microsomes was 51.8 mL/min/kg; the intrinsic clearance, rat liver microsomes came to 1090 mL/min/kg; the aqueous solubility turned out to be 2.45 µg/mL (≈ 5.63 µM).
For the molecule `Nc1nc2c(N)ncnc2[nH]1`, the aqueous solubility was 17.8 µg/mL (≈ 119 µM).
With `COc1cn(-c2ccc(-n3cccn3)cc2F)nc(-c2ccnn2-c2ccccc2)c1=O`, the MDR1-MDCK efflux ratio is 10.9; the intrinsic clearance, human liver microsomes was at most 4.74 mL/min/kg; the intrinsic clearance, rat liver microsomes came to 28.2 mL/min/kg.
Take `CC(=O)N1CCCN(C(=O)Nc2ccc(N(C)C3CCCCC3)c(F)c2)CC1`: the MDR1-MDCK efflux ratio worked out at 28.2; the intrinsic clearance, human liver microsomes came to 103 mL/min/kg; the intrinsic clearance, rat liver microsomes came out at 924 mL/min/kg; the aqueous solubility is 67.7 µg/mL (≈ 173 µM).
`CCCc1cnc(C)nc1N(C)CCC(C)(C)O` showed an intrinsic clearance, human liver microsomes of 8.14 mL/min/kg and an intrinsic clearance, rat liver microsomes of 155 mL/min/kg.
Turning to `Cn1c(=O)c2c(nc3n2CCN3Cc2c(F)cccc2Cl)n(C)c1=O`, the MDR1-MDCK efflux ratio is 1.27; the intrinsic clearance, human liver microsomes was determined as 11.9 mL/min/kg; the intrinsic clearance, rat liver microsomes was 146 mL/min/kg; the aqueous solubility was found to be 5.17 µg/mL (≈ 14.2 µM).
The corresponding values for `O=C(CN1CCCC(c2nc3ccccc3o2)C1)Nc1ccc(OC(F)(F)F)cc1` (stereo not drawn) are 0.983, 134 mL/min/kg, 496 mL/min/kg and 6.85 µg/mL (≈ 16.3 µM).
`Cc1nn(C)c2nc(N3CCN(C)C[C@@H]3c3ccccc3)sc12`: the MDR1-MDCK efflux ratio came to 0.847; the intrinsic clearance, human liver microsomes amounted to 18.5 mL/min/kg; the intrinsic clearance, rat liver microsomes is 506 mL/min/kg; the aqueous solubility was 45 µg/mL (≈ 137 µM).
The like results for `CNC(=O)c1cc(C2CCN(C)CC2)ncn1` were, in that order, 0.605, at most 4.74 mL/min/kg, at most 10.7 mL/min/kg and 32.5 µg/mL (≈ 139 µM).
With `Cc1cccc(N2CCN(C(=O)c3cncnc3C(C)C)CC2)c1`, the MDR1-MDCK efflux ratio amounted to 0.882; the intrinsic clearance, human liver microsomes is 144 mL/min/kg; the intrinsic clearance, rat liver microsomes came to 1500 mL/min/kg; the aqueous solubility was found to be 73.9 µg/mL (≈ 228 µM).
The corresponding values for `Cc1cc(NC(=O)CCc2c(C)nn(C)c2C)no1` are 3.86, at most 4.74 mL/min/kg, 45 mL/min/kg and 50.7 µg/mL (≈ 193 µM).
`CN(NC(=O)c1ccn(-c2ccccc2)n1)c1ccccc1` came in with an intrinsic clearance, human liver microsomes of 82.3 mL/min/kg; an intrinsic clearance, rat liver microsomes of 1900 mL/min/kg; an aqueous solubility of 58.1 µg/mL (≈ 199 µM).
Take `CN[C@@H](C)C(=O)N[C@H](C(=O)N1CCC[C@H]1C(=O)Nc1snnc1-c1ccccc1)C1CCCCC1`: the MDR1-MDCK efflux ratio was 47.8.
